# Reference: ChEMBL document CHEMBL1130523, “Design and synthesis of the cartilage protective agent (CPA, Ro32-3555)” (Bioorg Med Chem Lett, 1997)
# Columns and labels:
# [1] = Oral bioavailability in rat; assay type: ADME, organism-based; settings: in vivo
# [2] = Partition coefficient (logD); assay type: physicochemical; settings: octanol/water
# [3] = species on record: Bos taurus; assay: Effective activity in protecting bovine nasal cartilage explants against degradation induced by interleukin 1-alpha in efficacy experiments in vitro; assay type: functional
# [4] = target: Collagenase; assay: Inhibition of human collagenase (MMP1); assay type: protein assay
# [5] = target: Matrix metalloproteinase-9 (Homo sapiens, UniProt P14780); assay: Inhibition of human gelatinase B, MMP9
# Sequence of Matrix metalloproteinase-9 (P14780 whole entry): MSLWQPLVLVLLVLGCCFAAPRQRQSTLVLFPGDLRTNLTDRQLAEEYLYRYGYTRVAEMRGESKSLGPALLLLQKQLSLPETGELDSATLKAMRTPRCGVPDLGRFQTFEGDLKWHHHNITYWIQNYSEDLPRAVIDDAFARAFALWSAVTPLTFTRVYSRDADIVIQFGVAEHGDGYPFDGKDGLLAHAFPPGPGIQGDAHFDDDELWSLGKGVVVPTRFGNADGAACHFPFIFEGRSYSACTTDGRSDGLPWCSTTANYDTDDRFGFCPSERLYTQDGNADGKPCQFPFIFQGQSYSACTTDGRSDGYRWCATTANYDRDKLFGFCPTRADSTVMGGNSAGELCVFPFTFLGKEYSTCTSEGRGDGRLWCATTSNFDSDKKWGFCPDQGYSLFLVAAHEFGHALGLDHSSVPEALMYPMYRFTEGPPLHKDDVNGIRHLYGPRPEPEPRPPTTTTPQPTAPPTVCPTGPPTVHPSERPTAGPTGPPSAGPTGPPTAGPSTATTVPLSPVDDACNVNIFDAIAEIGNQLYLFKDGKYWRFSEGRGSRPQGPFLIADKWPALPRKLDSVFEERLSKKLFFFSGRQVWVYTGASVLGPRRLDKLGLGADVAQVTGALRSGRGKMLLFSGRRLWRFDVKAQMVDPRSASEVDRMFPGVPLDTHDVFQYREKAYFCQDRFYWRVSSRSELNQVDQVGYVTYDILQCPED
# [6] = target: Stromelysin-1 (Homo sapiens, UniProt P08254); assay: Inhibition of human stromelysin-1, MMP-3
# Sequence of Stromelysin-1 (P08254 whole entry): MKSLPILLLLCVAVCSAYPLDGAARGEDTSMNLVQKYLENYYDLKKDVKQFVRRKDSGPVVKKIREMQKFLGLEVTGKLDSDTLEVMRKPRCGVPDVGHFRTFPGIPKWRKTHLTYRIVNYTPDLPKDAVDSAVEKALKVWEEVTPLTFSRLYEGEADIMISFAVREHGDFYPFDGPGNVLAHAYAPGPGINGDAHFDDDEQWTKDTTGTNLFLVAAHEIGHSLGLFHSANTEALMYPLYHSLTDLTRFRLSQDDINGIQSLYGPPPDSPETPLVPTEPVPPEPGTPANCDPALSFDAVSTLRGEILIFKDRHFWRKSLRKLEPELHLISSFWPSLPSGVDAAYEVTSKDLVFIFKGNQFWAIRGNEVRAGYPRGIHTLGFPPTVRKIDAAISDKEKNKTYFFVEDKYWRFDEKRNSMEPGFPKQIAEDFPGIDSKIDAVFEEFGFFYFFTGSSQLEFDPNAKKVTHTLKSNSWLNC
# [7] = Solubility was determined; assay type: physicochemical
solubility [7] [mg/mL],Compound,bioavailability [1] [%],logD [2],IC50 [3] [nM],IC50 [4] [nM],IC50 [5] [nM],IC50 [6] [nM]
0.8,CNC(=O)[C@H](NC(=O)[C@@H](CC(=O)NO)CC(C)C)C(C)(C)C,3,,,4.9,10.4,160
73,CN1C(=O)N(C[C@@H](C(=O)NO)[C@@H](CC2CCCC2)C(=O)N2CCCCC2)C(=O)C1(C)C,25,0.6,< 100,,59,
,CNC(=O)[C@H](NC(=O)[C@H](CC(C)C)[C@@H](C)C(=O)NO)C(C)(C)C,2.7,,,2.6,2.4,47
,CNC(=O)[C@H](NC(=O)[C@H](CC(C)C)[C@@H](CN1C(=O)c2ccccc2C1=O)C(=O)NO)C(C)(C)C,1,,,,4.3,9.1
,"CNC(=O)[C@H](NC(=O)C(CC(C)C)C(CN1C(=O)N(C)C(C)(C)C1=O)C(=O)NO)C(C)(C)C (single isomer, unassigned)",1.5,,,1,2.8,

Compound,solubility [7] [mg/mL],bioavailability [1] [%],logD [2],IC50 [3] [nM],IC50 [4] [nM],IC50 [5] [nM],IC50 [6] [nM]
CC(C)C[C@@H](C(=O)N1CCCCC1)[C@@H](CN1C(=O)N(C)C(C)(C)C1=O)C(=O)NO,> 100,30,0.6,< 100,10.1,237,2180
